Several values for one entry are separate records, joined by “and”; a condition that tells them apart may be missing. Identical values can stand only once.
Key:
[1] = Intraperitoneal glucose tolerance test; format: in vivo; set-up: unit not given here; conditions: IP injected, individual mice, not corrected
From the text: To test for absorption and biologic incretin activity in vivo, we gastrically gavaged equal doses (10 nmol/kg) of the C6:0-GM1-GLP-1 fusion, the unfused GLP-1 peptide (GLP-1 oral), or vehicle into wild-type mice and measured effects on glucose metabolism by glucose tolerance test (Figure 5C). […] The effect on glucose tolerance by gastrically administered C6:0-GM1-GLP-1 was similar to the effect achieved by the intraperitoneal injection of GLP-1 peptide alone, implicating an equally high level of bioavailability for the gastrically-delivered GM1-fusion molecule (Figure 5D).
For intraperitoneal glucose tolerance tests, a 10 nmol/kg dose was used to gavage overnight-fasted WT C57/BL/6 mice (male 7–9 weeks old) with GM1-GLP-1 fusion molecules or unfused GLP-1. Glucose measurements following i.p administration of 2 mg/g glucose solution were obtained from tail vein blood applied directly to glucose strips as in ([te Welscher et al., 2014]).

[2] = GLP-1 in blood by streptavidin capture and luciferase bioassay; format: in vivo; conditions: individual mice, Ex 3 excluded from Figure 5E
From the text: We confirmed intestinal absorption of the C6:0-GM1-GLP-1 into the systemic circulation in two ways. First, we measured GLP-1 activity in blood samples by streptavidin capture and quantitative luciferase bioassay (Figure 5E). […] In a second approach, we synthesized an all D-amino acid (non-degradable) isomer of GLP-1 coupled to AF488 to allow for direct quantitative measurement of the […] isomer in the blood using the same streptavidin capture assay as described for our reporter peptide (Figure 5A). Again, we find evidence for absorption of the GLP-1 cargo when fused to the C6:0-GM1 transport vehicle, but no absorption for the unfused GLP-1 peptide (Figure 5F). These experiments were performed in two different laboratories, using two different animal facilities with the same results. In all assays (Figure 5C–5F), we find the efficiency of intestinal absorption enabled by fusion to C6:0-GM1 was again almost as efficient as for IP injection of the peptide alone, implicating a high level of bioavailability for the GM1-fusion molecules applied by gastric gavage.

[3] = oral, 15 min after gastric gavage

Substance: GLP-1
- total area under glucose tolerance curves (AUC) [1]: 2184 and 5775 and 3223 and 5783 and 10013 and 10613 and 14078 and 12630 and 14685 and 4613 and 1628 and 6533 and 2735 and 13695 and 6728 and 15120 and 10928 and 9270 and 7061 and 9383 and 7166 and 10043 and 10253
- GLP-1 in blood, corrected for vehicle ([2]; IP-injected): 6.787 fmols per 100uls blood and 7.191 fmols per 100uls blood and 4.472 fmols per 100uls blood and 6.8463 fmols per 100uls blood and 3.406 fmols per 100uls blood and 4.493 fmols per 100uls blood and 6.695 fmols per 100uls blood and 7.88 fmols per 100uls blood and 13.0711 fmols per 100uls blood and 7.126 fmols per 100uls blood
- GLP-1 in blood, raw data not corrected for vehicle ([2]; IP-injected): 8.132 fmols in 100 uls blood and 10.5063 fmols in 100 uls blood and 7.066 fmols in 100 uls blood and 8.153 fmols in 100 uls blood and 6.729 fmols in 100 uls blood and 7.914 fmols in 100 uls blood and 21.2711 fmols in 100 uls blood and 15.3265 fmols in 100 uls blood and 7.237 fmols in 100 uls blood and 7.641 fmols in 100 uls blood
- GLP-1 in blood, corrected for vehicle [2, 3]: 0.3766 fmols per 100uls blood and 0.3584 fmols per 100uls blood and 0.3383 fmols per 100uls blood and 0.4572 fmols per 100uls blood and -1.003 fmols per 100uls blood and -1.627 fmols per 100uls blood and 2.205 fmols per 100uls blood and 0.253 fmols per 100uls blood and 1.235 fmols per 100uls blood and 0.303 fmols per 100uls blood and -0.01924 fmols per 100uls blood and 0.2681 fmols per 100uls blood and -0.002238 fmols per 100uls blood and -1.223 fmols per 100uls blood and 0.4322 fmols per 100uls blood and -3.718 fmols per 100uls blood
- GLP-1 in blood, raw data not corrected for vehicle [2, 3]: 2.657 fmols in 100 uls blood and 2.033 fmols in 100 uls blood and 5.865 fmols in 100 uls blood and 3.913 fmols in 100 uls blood and 4.895 fmols in 100 uls blood and 3.963 fmols in 100 uls blood and 0.01476 fmols in 100 uls blood and 0.3021 fmols in 100 uls blood and 0.03176 fmols in 100 uls blood and 6.977 fmols in 100 uls blood and 8.632 fmols in 100 uls blood and 4.482 fmols in 100 uls blood and 0.8266 fmols in 100 uls blood and 0.8084 fmols in 100 uls blood and 0.7883 fmols in 100 uls blood and 0.9072 fmols in 100 uls blood

Reference: PMC5980230, “Mucosal absorption of therapeutic peptides by harnessing the endogenous sorting of glycosphingolipids” (eLife, 2018)
